From patent US20220193029A1, “BRYOSTATIN COMPOUNDS FOR ENHANCEMENT OF IMMUNOTHERAPY” (priority 2019, published 2022)

How the values were obtained:
[1] = system: CD22 surface expression in NALM6 cells; assay: CD22 surface expression assay by flow cytometry; type: cell-based, human; conditions: Homo sapiens, NALM-6; At 1 nM, relative to DMSO control; NALM6 cells; read-out: Fold increase CD22 expression
Protocol: Cell cultures were maintained between 4×10^5 and 3×10^6 cells/mL according to vendor instructions.
Cell suspension from a confluent T75 flask (Fisher) was transferred to a 15 mL falcon tube and centrifuged at 1100 rpm for 7 minutes. […] Cells were counted using a Countess II Automated Cell Counter (Fisher). […] 199 μL of this stock was added to 24 wells (enough for triplicate measurements for 8 different experimental conditions) in a 96-well plate. […] 1 μL of DMSO or the appropriate stock solution of compound in DMSO was added to each well. Cells were incubated for 24 hours, at which point the cell suspensions were transferred to 1.5 mL Eppendorf tubes and diluted with 1.0 mL of PBS (Hyclone, without Ca^2+ or Mg^2+). Samples were centrifuged at 2000 rpm for 5 min at RT. […] Cells were sub-cultured between 2×10^5 and 3×10^6 cells/mL in 24-well plates for an additional 24 hrs-7 days, at which point CD22 surface expression was assayed by flow cytometry.
Cells from one well were counted using a Countess II Automated Cell Counter (Fisher). ˜200,000-300,000 cells from each well were added to 1.5 mL Eppendorf tubes containing PBS (final volume ˜1.2 mL). The cell suspensions were centrifuged at 1500 rpm for 7 minutes at 4° C. The supernatant was aspirated, and the cell pellet was resuspended in 99 μL of pre-chilled FACS buffer (0.5% w/v BSA in PBS). […] Samples were then diluted with an additional 1.0 mL of FACS buffer and centrifuged at 1500 rpm for 7 minutes at 4° C. […] Cells were stained with DAPI and CD22 surface expression was analyzed using the FACScan Analyzer at the Stanford Shared FACS Facility. Data analysis was performed using FlowJo and Microsoft Excel.

PKCδ-GFP fusion protein = assay: PKCδ-GFP translocation assay in living CHO-k1 cells (confocal microscopy); type: cell-based, Chinese hamster; conditions: for concentration* (minimum effective concentration required to induce translocation of PKC-GFP to the membrane) / % Translocation: CHO-k1 cells; for % Translocation: maximum translocation of PKCδ-GFP to the plasma membrane at the concentration printed in the same cell, SUW212: only brief translocation observed
Protocol: (§1) Because a prerequisite for PKC pathway involvement is binding to PKC, compounds were initially evaluated for PKC affinity in a cell-free competitive binding assay with tritiated phorbol dibutyrate ([^3H]-PDBu). Assays were performed with representative members of both the conventional (PKCα) and novel (PKCδ) PKC families. Subsequently, compounds were assayed for PKC activation in living cells using an isoform translocation assay.
Chinese hamster ovary factor K1 (CHO-k1, ATCC) cells were cultured in F-12 Kaighn's media (Hyclone, 10% fetal bovine serum, 1% penicillin/streptomycin added, referred to as F-12+/+ below) at 37° C. in an incubator (5% CO2). Cell cultures were maintained by splitting cells 1:3 when they reached ˜75-100% confluence (every 2-3 days) as follows:
1 mL of the cell suspension was then added to 9 mL of fresh F-12+/+ and the sample was sub-cultured until reaching confluence (˜2-3 days).
Cells were counted using a Countess II Automated Cell Counter (Fisher). The cell suspension was diluted to 240,000 cells/mL with fresh F-12+/+ and 2.5 mL of this diluted stock was added to one well in a 6-well plate. The cells were then cultured for 24 hours.
F-12+/+ was aspirated and cells were washed with F-12−/−. 2 mL of fresh F-12−/− was then added to each well, taking care not to disturb adherent cells. For each well of CHO-k1 cells, 12.5 μL Lipofectamine 2000 reagent (Invitrogen) was added to 250 μL Opti-MEM reduced serum media (Invitrogen) in a polypropylene tube and incubated for 20 minutes at RT. Meanwhile, for each well, 4 μg of PKCδ-GFP pDNA and 250 μL Opti-MEM reduced serum media was added to a separate polypropylene tube. 250 μL of the Lipofectamine 2000 suspension was added to the DNA suspension and the solution incubated for 30 minutes at RT. 500 μL of the Lipofectamine/DNA suspension was added to the respective wells of the 6-well plate. The cells were then incubated at 37° C. (5% CO2) for ˜24 hrs.
F-12+/+ was aspirated and cells were washed with F-12−/−. 2.4 mL of fresh F-12−/− was then added to each well, taking care not to disturb adherent cells. A 4 μg aliquot of PKCδ-GFP pDNA was added to PBS (pH 5.5, final volume 100 μL). 5.6 μL of DA 13:11 (2 mM stock in DMSO) was then added to the DNA solution, and the mixture was gently mixed (by flicking) for 20 seconds, at which point it was added directly to the respective wells of the 6-well plate. The cells were then incubated at 37° C. (5% C02) for ˜24 hrs.
After incubation, the media was aspirated and cells were washed with PBS (2.0 mL) and trypsinized (500 μL). The cell suspension was then diluted with 2.0 mL F-12+/+. 200 μL aliquots were added to 3 wells of a Lab-Tek II 4-well chambered coverglass slide (Fisher), producing 4 slides in total, each with three wells of cells. The cell suspension was directly diluted with 600 μL of additional F-12+/+. The resulting samples were incubated for ˜24 hrs. prior to imaging.
Fluorescent images were obtained using a Leica SP8 White Light Confocal microscope and the Leica AF software package. Prior to analysis, media was aspirated and 800 μL of PBS (Hyclone, without Ca^2+ or Mg^2+) supplemented with glucose (10 mM) was added to each well of the chambered coverglass slide. Bryostatin and bryostatin analogs were diluted to the appropriate concentration in 200 μL of 10 mM glucose in PBS. Cells were located for imaging and data was recorded for three wells in parallel, imaging at predetermined positions in each well using adaptive focus control. Cells were imaged at 30 second intervals following the addition of compound (set to t=0) for 20-40 minutes. Data were recorded at room temperature. Images were exported as .lif files and fluorescence intensity was analyzed using FIJI (NIH) software.

PKCα = target: T1, PKCα (Homo sapiens, UniProt P17252); assay: cell-free competitive PKC binding assay with [3H]-phorbol dibutyrate; conditions: competition with [3H]-PDBu, recombinant human PKC isoform
T1 construct: purchased Invitrogen
Protocol: as §1
(§2) To a 50 mL polypropylene tube was added Tris-HCl (pH 7.4, 1 M, 1 mL), KCl (1 M, 2 mL), CaCl2) (0.1 M, 30 μL), and bovine serum albumin (BSA, 40 mg, Sigma-Aldrich). This mixture was diluted to 20 mL with deionized H2O and mixed gently. The buffer was stored on ice until use.
(§3) For every two assays, 3.5 mg phosphatidylserine (Avanti Polar Lipids, porcine, 25 mg/mL CHCl3 solution) was concentrated by removing chloroform under a stream of nitrogen followed by reduced pressure. The solid PS was suspended as vesicles in freshly prepared PKC binding assay buffer (3.5 mL) by sonicating six times for 30 sec, with a 30 sec rest between sonications (Branson Sonifier 250, power=2, 50% duty cycle). The resulting milky cloudy mixture (1 mg/mL) was stored on ice until use.
(§4) Assay PKC was prepared by dissolving a 4 μg aliquot of the indicated recombinant human PKC isoform (Invitrogen) into 11.6 mL of PKC binding assay buffer (this amount is sufficient for two assays). The diluted PKC was stored on ice for immediate use.
(§5) ^3H-PDBu (American Radiolabeled Chemicals, Inc.; 1 mCi/mL acetone solution; specific activity: 20 Ci/mmol) was diluted […] with DMSO. The resulting 500 nM stock solution was further diluted with DMSO to 30 nM.
(§6) Compound dilutions were prepared by serially diluting from a chosen “high” concentration by factors of 3 or 4.
(§7) To a polypropylene tube was added 3.3 mL of 1 mg/mL PS vesicles solution, 11 mL of PKC isoform solution, and 1.1 mL of 30 nM ^3H-PDBu solution were added. The resulting solution was vortexed to mix and stored on ice.
(§8) Materials: • Glass-fiber filters (Whatman GF/B) were prepared by soaking them in a solution of aqueous polyethyleneimine (10% by vol, 18 mL) in deionized water (600 mL) for ≥1 h. • 500 mL “rinsing buffer” of 20 mM Tris, pH 7.4 was cooled on ice for the duration of the incubation period and for the remainder of the assay.
(§9) Triplicate data points were obtained for each analog concentration. For each data point, 280 μL of “Master Mix” Solution and 20 μL of analog compound at a specified concentration were added to a polypropylene tube. […] Maximal ^3H-PDBu binding was assessed in triplicate by substitution of the analog compound with 20 μL DMSO. The solutions were vortexed to mix, incubated at 37° C. for 10 min, and incubated on ice for at least 30 min prior to filtration. Using a Brandel Harvester, the assay contents from each polypropylene tube were vacuum-filtered through polyethylenimine-soaked filters, washing with rinsing buffer (3×) and drying first under vacuum for 5 min and then under ambient conditions for ≥2 h. The resulting filters had circular perforations for each data point, which were removed with forceps and placed in a scintillation vial. Scintillation vials were filled with Bio-Safe II scintillation fluid (5 mL) and measured for radioactivity using a Beckman LS 6000SC scintillation counter. Counts per minute (cpm) were averaged for each triplicate dilution. The data were plotted—cpm vs. log(concentration)—using Prism® by GraphPad Software and an IC50 was determined using that program's built-in one-site competition least squares regression function. Ki values were calculated using the equation: Ki=IC50/(1+([3H−PDBu]/Kd)). The Kd of ^3H-PDBu for PKC isoforms was measured separately via saturation binding experiments under identical conditions.

PKCδ = target: T2, PKCδ (Homo sapiens, UniProt Q05655); assay: as above; conditions: competition with [3H]-PDBu, recombinant human PKC isoform
T2 construct: purchased Invitrogen
Protocol: as §1, §2, §3, §4, §5, §6, §7, §8
Triplicate data points were obtained for each analog concentration. For each data point, 280 μL of “Master Mix” Solution and 20 μL of analog compound at a specified concentration were added to a polypropylene tube. […] Maximal ^3H-PDBu binding was assessed in triplicate by substitution of the analog compound with 20 μL DMSO. The solutions were vortexed to mix, incubated at 37° C. for 10 min, and incubated on ice for at least 30 min prior to filtration. Using a Brandel Harvester, the assay contents from each polypropylene tube were vacuum-filtered through polyethylenimine-soaked filters, washing with rinsing buffer (3×) and drying first under vacuum for 5 min and then under ambient conditions for ≥2 h. The resulting filters had circular perforations for each data point, which were removed with forceps and placed in a scintillation vial. Scintillation vials were filled with Bio-Safe II scintillation fluid (5 mL) and measured for radioactivity using a Beckman LS 6000SC scintillation counter. Counts per minute (cpm) were averaged for each triplicate dilution. The data were plotted—cpm vs. log(concentration)—using Prism® by GraphPad Software and an IC50 was determined using that program's built-in one-site competition least squares regression function. […] The Kd of ^3H-PDBu for PKC isoforms was measured separately via saturation binding experiments under identical conditions.

PKC = assay: cell-free PKC binding assay, isoform not given; design: species or system human
Protocol: as §1, §4, §9

T2 sequence (Q05655 whole entry, canonical isoform): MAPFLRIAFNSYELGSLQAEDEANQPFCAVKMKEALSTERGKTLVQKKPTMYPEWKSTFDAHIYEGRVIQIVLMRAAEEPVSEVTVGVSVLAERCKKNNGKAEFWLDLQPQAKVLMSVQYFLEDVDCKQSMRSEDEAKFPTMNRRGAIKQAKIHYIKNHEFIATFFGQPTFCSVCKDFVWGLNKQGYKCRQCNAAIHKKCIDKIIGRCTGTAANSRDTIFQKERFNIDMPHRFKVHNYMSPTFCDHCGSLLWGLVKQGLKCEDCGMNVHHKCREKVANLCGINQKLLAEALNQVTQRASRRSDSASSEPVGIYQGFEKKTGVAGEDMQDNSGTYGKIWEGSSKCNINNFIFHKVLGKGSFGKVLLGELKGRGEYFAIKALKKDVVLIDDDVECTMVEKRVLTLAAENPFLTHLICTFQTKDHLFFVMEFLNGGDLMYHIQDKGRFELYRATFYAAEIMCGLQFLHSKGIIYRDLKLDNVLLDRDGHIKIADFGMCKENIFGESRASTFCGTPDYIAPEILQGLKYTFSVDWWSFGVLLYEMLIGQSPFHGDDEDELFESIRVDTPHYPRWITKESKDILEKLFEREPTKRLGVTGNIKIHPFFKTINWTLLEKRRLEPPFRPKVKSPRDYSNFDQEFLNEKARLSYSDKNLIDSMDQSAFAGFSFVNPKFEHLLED

| SMILES | fold induction at 0.001 µM [1] | concentration* (minimum effective concentration required to induce translocation of PKC-GFP to the membrane) (PKCδ-GFP fusion protein) [nM] | % Translocation (PKCδ-GFP fusion protein) [%] | cytosolic PKC translocated to the plasma membrane (PKCδ-GFP fusion protein; 200 nM, at 20 minutes) [%] | Ki (PKCα) [nM] | Ki (PKCδ) [nM] | binding affinity to PKC, in words (PKC) | activity in the PKC translocation assay at 200 nM (PKCδ-GFP fusion protein; 200 nM) | cytosolic PKC translocated to the plasma membrane (PKCδ-GFP fusion protein; 1000 nM, at about 5 minutes) [%] | sustained translocation of PKC (PKCδ-GFP fusion protein; at up to 1000 nM) |
| --- | --- | --- | --- | --- | --- | --- | --- | --- | --- | --- |
| C=C1CC2C=CC(C)(C)C3(O)OC(CC(=CC(=O)OC)C3OC(=O)C#CCCCCC)CC(C(C)O)OC(=O)CC(O)CC3CC(OC(C)=O)C(C)(C)C(O)(CC(C1)O2)O3 (centres unmarked) [SUW200] | 1.73 | 200 | 70 |  |  |  |  |  |  |  |
| CCCCCC#CC(=O)O[C@H]1/C(=C/C(=O)OC)C[C@H]2C[C@H]([C@@H](C)O)OC(=O)C[C@H](O)C[C@@H]3C[C@H](OC(C)=O)C(C)(C)[C@](O)(C[C@@H]4C[C@H](O)C[C@H](/C=C/C(C)(C)[C@]1(O)O2)O4)O3 [SUW204] |  | 200 | 25 | ~25 |  |  |  |  |  |  |
| CCCC=CC=CC(=O)OC1C(=CC(=O)OC)CC2CC(C(C)O)OC(=O)CC(O)CC3CC(OC(C)=O)C(C)(C)C(O)(CC4CC(OC(=O)CC56CC7CC(CC(C7)C5)C6)CC(C=CC(C)(C)C1(O)O2)O4)O3 (centres unmarked) [SUW209] |  | 1000 | 60 |  | 1.6 | 3.5 | high affinity PKC binders | inactive | ~70 |  |
| CCC/C=C/C=C/C(=O)O[C@H]1/C(=C/C(=O)OC)C[C@H]2C[C@H]([C@@H](C)O)OC(=O)C[C@H](O)C[C@@H]3C[C@H](OC(C)=O)C(C)(C)[C@](O)(C[C@@H]4C[C@H](OC(=O)CN(C)C)C[C@H](/C=C/C(C)(C)[C@]1(O)O2)O4)O3 [SUW211] |  | 1000 | 20 |  | 98 | 27 |  |  |  | did not achieve sustained translocation |
| CCC/C=C/C=C/C(=O)O[C@H]1/C(=C/C(=O)OC)C[C@H]2C[C@H]([C@@H](C)O)OC(=O)C[C@H](O)C[C@@H]3C[C@H](OC(C)=O)C(C)(C)[C@](O)(C[C@@H]4C/C(=C\C(=O)OCc5ccccc5)C[C@H](/C=C/C(C)(C)[C@]1(O)O2)O4)O3 [SUW220] |  | 1000 | 50 |  | 16 | 15 |  |  |  |  |
| C=CCOC(=O)/C=C1\C[C@H]2C[C@]3(O)O[C@H](C[C@@H](O)CC(=O)O[C@@H]([C@@H](C)O)C[C@@H]4C/C(=C\C(=O)OC)[C@H](OC(=O)/C=C/C=C/CCC)[C@@](O)(O4)C(C)(C)/C=C/[C@@H](C1)O2)C[C@H](OC(C)=O)C3(C)C [SUW230] |  | 200 | 65 |  | 4.2 | 9.4 |  |  |  |  |
